10 compounds from US8697641B2, “4-amino-4-oxobutanoyl peptide cyclic analogues, inhibitors of viral replication” (Achillion Pharmaceuticals, Inc., priority 2008, dated 2014) can be followed below.

pEC50: −log10 of the molar value.

The assay concerns Hepatitis C replicon. Nature of the assay: HCV replicon assay (NPT ELISA readout) in Huh-7 replicon-containing cells. The format is cell-based, Hepatitis C virus. The following applies: Hepatitis C virus, 72 h; HCV replicon in Huh-7 cells, three days incubation. The method in brief: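 Replication is measured as neomycin phosphotransferase level by captured ELISA after three days of compound exposure (typically 10 to 0.03 μM, 6 concentrations) at 37 °C. Cells are Huh-7 harbouring an HCV replicon with neo gene and NS3-NS5B; interferon alpha is the positive control.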
In general terms: Replicon systems follow genome replication, usually without infectious particles.

One may read the pEC50 as −log10 of the EC50, conventionally taken in molar units. High values mean a small EC50, low ones a large EC50. Regarding `COc1ccc2c(O[C@@H]3C[C@H]4C(=O)N[C@]5(C(=O)NS(=O)(=O)C6CC6)C[C@H]5/C=C\CCCCC[C@H](CC(=O)N5CCCCC5)C(=O)N4C3)nccc2c1Cl` [Compound 122, (2R,6R,13aS,16aS, Z)-2-(5-chloro-6-methoxylsoquinolin-1-yloxy)-N-(cyclopropylsulfonyl)-5, 16-dioxo-6-(2-oxo-2-(piperidin-1-yl)ethyl)-1,2,3,5,6,7,8,9,10,11, 13a,14,14a,15,16,16a-hexadecahydrocyclopropa [e]pyrrolo[1,2-a][1,4] diazacyclopentadecine-14a-carboxamide], the pEC50 was more than 6.00.

Turning to `COc1ccc2nc(-c3ccccn3)cc(C(=O)N[C@@H]3C[C@H]4C(=O)N[C@]5(C(=O)NS(=O)(=O)C6CC6)C[C@H]5/C=C\CCCCC[C@H](CC(=O)N5CCC(F)(F)C5)C(=O)N4C3)c2c1` [Compound 98, (2R,6R,14aR,16aS,Z)-N-(cyclopropylsulfonyl)-6-(2-(3,3-difluoropyrrolidin-1-yl)-2-oxoethyl)-2-(6-methoxy-2-(pyridin-2-yl)quinoline-4-carboxamido)-5,16-dioxo-1,2,3,5,6,7,8,9,10,11, 13a,14,14a,15,16,16a-hexadecahydrocyclopropa [e]pyrrolo[1,2-a][1,4] diazacyclopentadecine-14a-carboxamide], the pEC50 was more than 6.00.

`COc1ccc2c(O[C@@H]3C[C@H]4C(=O)N[C@]5(C(=O)NS(=O)(=O)C6CC6)C[C@H]5/C=C\CCCCC[C@H](CC(=O)N5CC[C@@H](CN)C5)C(=O)N4C3)cc(-c3ccccc3)nc2c1` [Compound 105, (2R,6R,14aR,16aS, Z)-6-(2-((S)-3-(aminomethyl)pyrrolidin-1-yl)-2-oxoethyl)-N-(cyclopropylsulfonyl)-2-(7-methoxy-2-phenylquinolin-4-yloxy)-5,16-dioxo-1,2,3,5,6,7,8,9,10,11, 13a,14,14a,15,16,16a-hexadecahydrocyclopropa [e]pyrrolo[1,2-a][1,4] diazacyclopentadecine-14a-carboxamide] gave a pEC50 of more than 6.00.

For the compound `COc1ccc2c(O[C@@H]3C[C@H]4C(=O)N[C@@](C)(C(=O)NS(=O)(=O)C5CC5)CCCCCCCC[C@H](CC(=O)N5CCCCC5)C(=O)N4C3)cc(-c3ccccc3)nc2c1` [Compound 54, (3R,12R,16R,17aS)-N-(cyclopropylsulfonyl)-16-(7-methoxy-2-phenylquinolin-4-yloxy)-3-methyl-1,13-dioxo-12-(2-oxo-2-(piperidin-1-yl)ethyl)hexadecahydro-1H-pyrrolo[1,2-a][1,4] diazacyclopentadecine-3-carboxamide], the negative logarithm of the EC50 (pEC50) was more than 6.00.

Compound `COc1ccc2c(O[C@@H]3C[C@H]4C(=O)N[C@]5(C(=O)NS(=O)(=O)C6CC6)C[C@H]5/C=C\CCCCC[C@H](CC(=O)N5CCN(c6cnccn6)CC5)C(=O)N4C3)cc(-c3ccccc3)nc2c1` [Compound 87, (2R,6R,14aR,16aS,Z)-N-(cyclopropylsulfonyl)-2-(7-methoxy-2-phenylquinolin-4-yloxy)-5,16-dioxo-6-(2-oxo-2-(4-(pyrazin-2-yl)piperazin-1-yl)ethyl)-1,2,3,5,6,7,8,9,10,11, 13a,14,14a,15,16,16a-hexadecahydrocyclopropa [e]pyrrolo[1,2-a][1,4] diazacyclopentadecine-14a-carboxamide] showed a pEC50 of more than 6.00.

In the case of `COc1ccc2c(O[C@@H]3C[C@H]4C(=O)N[C@]5(C(=O)NS(=O)(=O)C6CC6)C[C@H]5/C=C\CCCCC[C@H](CC(=O)N5CCCCC5)C(=O)N4C3)cc(-c3ccccn3)nc2c1C` [Compound 116, (2R,6R,14aR,16aS,Z)-N-(cyclopropylsulfonyl)-2-(7-methoxy-8-methyl-2-(pyridin-2-yl)quinolin-4-yloxy)-5, 16-dioxo-6-(2-oxo-2-(piperidin-1-yl)ethyl)-1,2,3,5,6,7,8,9,10,11, 13a,14,14a,15,16,16a-hexadecahydrocyclopropa [e]pyrrolo[1,2-a][1,4] diazacyclopentadecine-14a-carboxamide], the negative logarithm of the EC50 (pEC50) is more than 6.00.

The compound `COc1ccc2c(O[C@@H]3C[C@H]4C(=O)N[C@H](C(=O)NS(=O)(=O)C5CC5)[C@@H](C)CCCCCCC[C@H](CC(=O)N5CCCCC5)C(=O)N4C3)cc(-c3ccccc3)nc2c1` [Compound 53, (3S,4S,12R,16R,17aS)-N-(cyclopropylsulfonyl)-16-(7-methoxy-2-phenylquinolin-4-yloxy)-4-methyl-1,13-dioxo-12-(2-oxo-2-(piperidin-1-yl)ethyl)hexadecahydro-1H-pyrrolo[1,2-a][1,4] diazacyclopentadecine-3-carboxamide] showed a negative logarithm of the EC50 (pEC50) of 5.00 to 6.00.

`COc1ccc2c(O[C@@H]3C[C@H]4C(=O)N[C@]5(C(=O)NS(=O)(=O)C6CC6)C[C@H]5/C=C\CCCCC[C@H](CC(=O)N5CC6CC5CO6)C(=O)N4C3)cc(-c3ccccc3)nc2c1` (stereo partly drawn) [Compound 77, (2R,6R,13aS,14aR, 16aS,Z)-6-(2-(2-oxa-5-azabicyclo[2.2.1]heptan-5-yl)-2-oxoethyl)-N-(cyclopropylsulfonyl)-2-(7-methoxy-2-phenylquinolin-4-yloxy)-5,16-dioxo-1,2,3,5,6,7,8,9,10,11, 13a,14,14a,15,16,16a-hexadecahydrocyclopropa [e]pyrrolo[1,2-a][1,4] diazacyclopentadecine-14a-carboxamide]: the pEC50 is more than 6.00.

In the case of `COc1ccc2c(O[C@@H]3C[C@H]4C(=O)N[C@](C)(C(=O)NS(=O)(=O)C5CC5)C/C=C\CCCCC[C@H](CC(=O)N5CCCCC5)C(=O)N4C3)cc(-c3ccccc3)nc2c1` [Compound 66, (3S,12R,16R,17aS,Z)-N-(cyclopropylsulfonyl)-16-(7-methoxy-2-phenylquinolin-4-yloxy)-3-methyl-1,13-dioxo-12-(2-oxo-2-(piperidin-1-yl)ethyl)-2,3,4,7,8,9,10, 11,12,13,15,16,17,17a-tetradecahydro-1H-pyrrolo[1,2-a][1,4] diazacyclopentadecine-3-carboxamide], the negative-log EC50 (pEC50) is 5.00 to 6.00.

Take `COc1ccc2c(O[C@@H]3C[C@H]4C(=O)N[C@]5(C(=O)NS(=O)(=O)C6CC6)C[C@H]5/C=C\CCCCC[C@H](CC(=O)N5CCCCC5)C(=O)N4C3)cc(-c3ccccc3)nc2c1` [Compound 48, (2R,6R,13aS, 14aR,16aS,Z)-N-(cyclopropylsulfonyl)-2-(7-methoxy-2-phenylquinolin-4-yloxy)-5,16-dioxo-6-(2-oxo-2-(piperidin-1-yl)ethyl)-1,2,3,5,6,7,8,9,10,11, 13a,14,14a,15,16,16a-hexadecahydrocyclopropa [e]pyrrolo[1,2-a][1,4] diazacyclopentadecine-14a-carboxamide]: the negative-log EC50 (pEC50) is 5.00 to 6.00.
